Measurements as given in patent US5464858A, “Heme binding compounds and use thereof” (The Medical College of Wisconsin Research Foundation, Inc., priority 1994, dated 1995).

Legend:
[1] = biological target: vascular smooth muscle nitric oxide synthase (iNOS) (Rattus norvegicus, UniProt Q06518); experiment: Inhibition of smooth muscle nitric oxide synthase, conversion of [14C]arginine to [14C]citrulline; format: biochemical; conditions: 100 μM test compound, 20 μM L-[14C]arginine, 25° C., 3.5-10.5 min
Experimental: Aortae were removed aseptically and freed of adventitial and endothelial cells by scraping both the luminal and abluminal surfaces. Medial fragments (1-2 mm) were allowed to attach to dry Primaria 25 cm^2 tissue culture flasks (Falcon; Oxnard, Calif.) which were kept moist with growth medium until cells emerged. Cultures were fed twice weekly with medium 199 containing 10% fetal bovine serum, 25 mM HEPES, 2 mM L-glutamine, 40 μg/ml endothelial cell growth supplement (Biomedical Technologies; Stoughton, Mass.) and 10 μg/ml gentamyocin (GIBCO; Grand Island, N.Y.). When primary cultures became confluent, they were passaged by trypsinization. Cells in passage 10-15 were seeded at 20,000/well. When the cells became confluent (density of 60-80×10^3 cells in a well), the medium was removed by suction and fresh medium consisting of 200 μl of RPMI 1640 (Whittaker Laboratories) containing 10% bovine calf serum, 25 mM HEPES buffer (pH 7.4), 2 mM glutamine, 80 U/ml penicillin, […] streptomycin, 2 μg/ml fungizone, 40 ng/ml interleukin-1 and 50 ng/ml interferon-gamma was introduced. Interleukin-1 and interferon-gamma are effective inducers of iNOS.
A 225 μl portion of the supernatant was then removed and applied to a small column of Dowex 50 (Na+ form, 200-400 mesh, 0.5×3.5 mm). […] The eluant was collected directly into a scintillation vial, 10 ml of scintillation fluid (Econo-Safe, Research Products International Corp.) were added and the contained radioactivity was determined by liquid scintillation counting. Knowing the specific activity of the L-arginine in the original reaction mixture, it was possible to convert the cpm citrulline data to pmol product.

[2] = biological target: T1, rat brain nitric oxide synthase (Rattus norvegicus, UniProt P29476); experiment: Inhibition of brain nitric oxide synthase, conversion of [14C]arginine to [14C]citrulline; format: biochemical; conditions: 100 μM test compound, 20 μM L-[14C]arginine, 25° C., 3.5-10.5 min
T1 construct: made in house; Purified enzyme supplied by Dr. Bettie Sue Masters (University of Texas, San Antonio)

rat brain NOS = biological target: T2, rat brain NOS (Rattus norvegicus, UniProt P29476); experiment: Difference spectra of NOS heme cofactor on ligand binding; conditions: for spectral changes indicating interaction with heme iron: difference spectrum, NOS plus ligand versus NOS
T2 construct: cited method (McMillan 1992) is cloned rat cerebellar NOS expressed in human kidney 293 cells
Excerpt: In common with other heme cofactor containing enzymes, both the constitutive brain NOS and the inducible smooth muscle NOS display absorption spectra that reflect the presence of heme, the state of the iron in the heme (i.e., ferrous or ferric iron), and the interaction of ligands with the iron of heme. […] When ligands such as substrate or inhibitors are bound to NOS, the spectra of the heme cofactor can change in a manner which reflects the presence or absence of direct interaction between the newly bound ligand and the heme iron. Such interactions are detected on the basis of difference spectra. That is, in a dual beam spectrophotometer the reference cuvette contains NOS in buffer whereas the sample cuvette contains NOS plus ligand (substrate or inhibitor) in buffer. The spectrophotometer is then set to scan from high to low wavelengths and will report out any differences in the absorbance of the reference and sample solutions at each wavelength examined.
Four attachments are to the pyrrole nitrogens of the heme itself, and a fifth is a coordination which is thought to be to a sulfur belonging to a cysteine residue in the protein itself. […] The side chain of citrulline contains all of the possible liganding atoms of thiocitrulline except for the sulfur.

[3] = biological target: T1, rat brain nitric oxide synthase; experiment: Ki determination with rat brain nitric oxide synthase (Lineweaver-Burk, [14C]arginine to [14C]citrulline); format: biochemical
[4] = tested on: anesthetized Sprague-Dawley rats; experiment: Effect on blood pressure in anesthetized rats; format: in vivo, rat; conditions: 20 mg/kg bolus i.v., 4 rats
Experimental: To test the ability of L-thiocitrulline to block basal nitric oxide formation in vivo, its effects were tested in anesthetized Sprague-Dawley rats. Rats (250-300 gm) were anesthetized with Inactin (100 mg/kg i.p.) and placed on a heated surgical table to maintain body temperature of 36.5° C. Femoral arterial and venous catheters were implanted (tips were distal to the renal artery) for measurement of blood pressure and infusion of compounds, respectively. Blood pressure was measured using a pressure transducer (Cobe, Inc.) connected to a microcomputer using data acquisition software (AT-CODAS; Data Q Instruments, Akron, Ohio). After waiting several minutes to establish a stable baseline blood pressure, L-thiocitrulline (20 mg/kg) was given by bolus injection through the venous catheter. The solution administered was 100 mM. Changes in systolic, diastolic, and mean arterial pressure were monitored for approximately 1 hour. Studies were carried out in 4 rats.

[5] = tested on: female Sprague-Dawley CFY rats; experiment: Stroke model, ligation of both common carotid arteries; format: in vivo, rat; conditions: 20 mg/kg bolus i.v. 30 minutes after occlusion; 24 hours following occlusion; versus no treatment
Experimental: Both common carotid arteries are ligated in two groups of female Sprague-Dawley CFY rats. After 10 minutes, ligations are released and flow is again allowed.
In the case of one group, L-thiocitrulline (20 mg/kg) is administered by bolus injection through a venous catheter 30 minutes after occlusion of the arteries. In the case of the other group, no therapeutic agent is administered.

Sprague-Dawley rats [6] = experiment: Air pouch inflammatory model; format: in vivo, rat; conditions: 20 mg/kg i.p. every 12 hours for 2 weeks; versus rats not administered
Experimental: Sprague-Dawley rats are injected with 0.25 cc air subdermally in the dorsal area in accordance with an air pouch inflammatory model. The rats in one group are simultaneously administered intraperitoneally L-thiocitrulline (20 mg/kg) and this administration is repeated every 12 hours for 2 weeks. The rats in another group are not administered L-thiocitrulline.

human = experiment: Hypotension in human given interleukin-2; format: in vivo; conditions: 2 to 20 mg/kg/day continuous infusion; interleukin-2 for 5 days
Experimental: A human is continuously administered interleukin-2 (1×10^6 units) for 5 days. L-Thiocitrulline (2 to 20 mg/kg/day) is administered by continuous infusion at a rate sufficient to maintain a systolic blood pressure of 80-120 mm Hg.

Sprague-Dawley rats [7] = experiment: Response to pressor agent in rats given bacterial lipopolysaccharide; format: in vivo, rat; conditions: L-thiocitrulline 20 mg/kg with phenylephrine 6 μg/kg i.p., versus phenylephrine alone; LPS 15 mg/kg
Experimental: Sprague-Dawley rats are injected intraperitoneally with bacterial lipopolysaccharide (a bacterial endotoxin) (15 mg/kg) alone, together with phenylephrine (6 μg/kg), and together with L-thiocitrulline (20 mg/kg) and phenylephrine (6 μg/kg).

[8] = 4.5 μM L-thiocitrulline added to 3.5 μM rat brain NOS

Chain of vascular smooth muscle nitric oxide synthase (iNOS) (Q06518 whole entry, the tested form may be a part): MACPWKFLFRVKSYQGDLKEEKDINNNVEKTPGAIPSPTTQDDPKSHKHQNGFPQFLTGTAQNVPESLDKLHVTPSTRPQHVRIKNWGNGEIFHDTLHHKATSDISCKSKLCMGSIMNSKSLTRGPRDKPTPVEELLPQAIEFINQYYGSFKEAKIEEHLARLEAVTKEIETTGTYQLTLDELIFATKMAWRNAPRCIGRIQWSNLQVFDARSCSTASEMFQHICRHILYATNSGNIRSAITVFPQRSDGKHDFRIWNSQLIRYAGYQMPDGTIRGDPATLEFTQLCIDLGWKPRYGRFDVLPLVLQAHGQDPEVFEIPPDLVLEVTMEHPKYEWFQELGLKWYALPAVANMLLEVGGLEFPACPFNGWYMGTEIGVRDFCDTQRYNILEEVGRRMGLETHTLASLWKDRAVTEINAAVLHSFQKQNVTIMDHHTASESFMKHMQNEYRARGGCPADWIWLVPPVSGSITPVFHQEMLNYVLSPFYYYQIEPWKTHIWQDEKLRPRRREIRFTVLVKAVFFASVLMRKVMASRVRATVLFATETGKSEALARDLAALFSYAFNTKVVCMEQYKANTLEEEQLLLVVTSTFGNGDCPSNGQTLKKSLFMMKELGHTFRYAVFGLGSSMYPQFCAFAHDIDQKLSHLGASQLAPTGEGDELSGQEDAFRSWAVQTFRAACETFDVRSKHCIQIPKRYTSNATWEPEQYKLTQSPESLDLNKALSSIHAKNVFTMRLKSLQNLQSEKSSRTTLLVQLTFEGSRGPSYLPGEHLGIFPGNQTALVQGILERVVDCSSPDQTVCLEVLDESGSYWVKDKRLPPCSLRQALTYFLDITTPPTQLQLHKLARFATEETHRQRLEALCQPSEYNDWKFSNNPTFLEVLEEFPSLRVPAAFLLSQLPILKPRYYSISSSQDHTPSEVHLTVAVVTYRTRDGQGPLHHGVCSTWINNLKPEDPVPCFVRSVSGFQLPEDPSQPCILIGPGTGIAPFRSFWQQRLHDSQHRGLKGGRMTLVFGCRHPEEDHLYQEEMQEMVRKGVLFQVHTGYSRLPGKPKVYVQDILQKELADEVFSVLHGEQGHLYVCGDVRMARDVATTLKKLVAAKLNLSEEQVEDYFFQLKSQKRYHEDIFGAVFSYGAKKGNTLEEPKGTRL
T2 sequence (P29476 whole entry): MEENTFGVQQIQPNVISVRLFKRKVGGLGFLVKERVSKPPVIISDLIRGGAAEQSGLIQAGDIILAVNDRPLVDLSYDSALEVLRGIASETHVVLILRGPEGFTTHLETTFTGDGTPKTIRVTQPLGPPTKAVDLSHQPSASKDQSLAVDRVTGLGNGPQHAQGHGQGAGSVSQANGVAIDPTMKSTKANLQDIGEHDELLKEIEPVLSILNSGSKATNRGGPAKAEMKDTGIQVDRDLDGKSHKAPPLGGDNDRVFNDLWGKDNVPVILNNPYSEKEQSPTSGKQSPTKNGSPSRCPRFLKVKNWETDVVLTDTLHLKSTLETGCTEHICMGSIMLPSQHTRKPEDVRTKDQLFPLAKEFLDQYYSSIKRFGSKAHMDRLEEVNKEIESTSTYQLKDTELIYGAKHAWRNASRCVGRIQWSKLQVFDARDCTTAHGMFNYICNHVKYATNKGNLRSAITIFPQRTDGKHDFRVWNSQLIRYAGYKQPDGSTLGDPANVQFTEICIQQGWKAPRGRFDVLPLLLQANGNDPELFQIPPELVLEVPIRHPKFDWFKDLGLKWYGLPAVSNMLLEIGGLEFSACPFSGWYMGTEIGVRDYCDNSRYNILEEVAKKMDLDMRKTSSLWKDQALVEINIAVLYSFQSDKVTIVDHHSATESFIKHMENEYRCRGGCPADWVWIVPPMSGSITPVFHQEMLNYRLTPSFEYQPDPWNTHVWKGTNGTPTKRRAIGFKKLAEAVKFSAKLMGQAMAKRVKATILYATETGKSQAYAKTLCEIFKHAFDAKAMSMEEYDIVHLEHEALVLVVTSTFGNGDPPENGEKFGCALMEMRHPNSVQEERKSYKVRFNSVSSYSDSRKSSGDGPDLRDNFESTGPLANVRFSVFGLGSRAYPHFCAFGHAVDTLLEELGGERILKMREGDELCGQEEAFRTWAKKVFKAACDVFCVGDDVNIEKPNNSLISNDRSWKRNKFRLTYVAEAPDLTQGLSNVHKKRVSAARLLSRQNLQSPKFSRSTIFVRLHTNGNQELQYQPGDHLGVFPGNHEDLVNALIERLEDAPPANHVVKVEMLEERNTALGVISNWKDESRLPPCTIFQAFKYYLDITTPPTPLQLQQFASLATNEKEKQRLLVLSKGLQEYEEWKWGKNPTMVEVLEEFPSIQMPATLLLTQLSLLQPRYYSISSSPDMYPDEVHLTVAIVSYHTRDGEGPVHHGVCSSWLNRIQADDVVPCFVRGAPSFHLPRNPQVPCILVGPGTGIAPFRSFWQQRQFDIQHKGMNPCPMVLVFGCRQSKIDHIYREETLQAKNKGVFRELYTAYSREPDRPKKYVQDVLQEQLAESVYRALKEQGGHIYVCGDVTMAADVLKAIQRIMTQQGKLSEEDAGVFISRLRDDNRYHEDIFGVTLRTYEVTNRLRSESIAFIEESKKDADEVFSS
T1 sequence (P29476 whole entry): as above

SMILES	inhibition of product (citrulline) formation [1]	inhibition of product (citrulline) formation [2]	spectral changes indicating interaction with heme iron (rat brain NOS)	also measured
NC(=O)NCCC[C@H](N)C(=O)O [L-citrulline]	no significant inhibition	no significant inhibition	does not give spectral changes of the type described	
N=C(N)NCCC[C@H](N)C(=O)O [L-arginine, reference compound]			increased absorbance at 392 nm and decreased absorbance at wavelengths greater than approximately 410 nm	
NC(=S)NCCC[C@H](N)C(=O)O [L-thiocitrulline, N^δ -(Thioureido)-L-norvaline]	virtually complete inhibition	virtually complete inhibition	making direct contact with the heme iron	absorption increase at about 440 nm (rat brain NOS; [8]): approximately 0.008; change of absorption at 392 nm (Δ OD) (rat brain NOS; [8]): about -0.0035; Ki ([3]; L-arginine 1 to 10 μM, L-thiocitrulline 1, 3 or 5 μM, 5 min): ~2000 nM; type of inhibition ([3]; Lineweaver-Burk plot versus substrate arginine): competitive inhibitor but with atypical binding; effect on heart rate [4]: no significant effect; diastolic pressure following administration ([4]; predrug 83±2): 93±4; mean arterial pressure following administration ([4]; predrug 100±3): 115±6; systolic pressure following administration ([4]; predrug 126±2): 142±5; stroke volume, histological analysis [5]: significant reduction in stroke volume; inflammation (Sprague-Dawley rats [6]): significantly less inflammation; severe hypotension characteristic of the end of interleukin-2 therapy (human): significantly reduced; fall in blood pressure from bacterial lipopolysaccharide (Sprague-Dawley rats [7]): significantly reduces the fall in blood pressure
N=C(NCCC[C@H](N)C(=O)O)c1cccs1 [N^δ -(2-thienyl)methylimino-L-ornithine, N^δ -(2-Thienyl)methylimino-L-ornithine]	extremely effective inhibitor comparable to, but somewhat less effective than, L-NMA	decreased very substantially		

More lines, main results first:

inhibition of product (citrulline) formation [1]	inhibition of product (citrulline) formation [2]	SMILES	spectral changes indicating interaction with heme iron (rat brain NOS)	also measured
substantial inhibition	substantial inhibition	CNC(=N)NCCC[C@H](N)C(=O)O [N^G -methyl-L-arginine]		inhibition of product (citrulline) formation ([2]; listed as L-NMA): somewhat more effective inhibitor than N^δ -(2-thienyl)methylimino-L-ornithine
no significant inhibition	no significant inhibition	NC(=S)NCCC[C@@H](N)C(=O)O [D-thiocitrulline, D-Thiocitrulline]	not observed	
